The assay deals with Plasmodium berghei. The experiment in a line: Luciferase/luciferin-expressing antifolate-resistant parasites were used to infect a culture of HepG2 cells that were pre-incubated with compounds. Infected hepatocytes emit light due to the luciferase reaction. Assay results are presented as the percent inhibition of light emission compared to control. […]. The settings on record: sporozoite; for IC90: read-out: LUCIFERASE INFECTION ASSAY - IC90. The format is functional.

Regarding `COc1ccccc1C(CNC(=O)c1ccc(-c2ccccc2Cl)o1)N1CCCC1` (configuration not stated), the IC90 came to 9.73 µM. Further, the IC50 (PBLUC_HILL_SLOPE 3.28, PBLUC_R_SQUARED 0.202, read-out: LUCIFERASE INFECTION ASSAY - IC50) came out at 4.98 µM.
Take `NC(Cc1ccc(C(F)(F)F)cc1)c1csc(Nc2cc(Oc3ccccc3)ncn2)n1` (configuration not stated): the IC90 was above 7.21 µM. In addition, where the note is “PBLUC_HILL_SLOPE 3.27, PBLUC_R_SQUARED 0.275, read-out: LUCIFERASE INFECTION ASSAY - IC50”, the IC50 is 4.26 µM.
`CNC(=S)Nc1cc(C(F)(F)F)cc(C(F)(F)F)c1`: the IC90 amounted to 8.33 µM. Moreover, the IC50 (PBLUC_HILL_SLOPE 3.27, PBLUC_R_SQUARED 0.572, read-out: LUCIFERASE INFECTION ASSAY - IC50) amounted to 4.26 µM.
With `CCN(CC)S(=O)(=O)c1ccc(C(C)NC(=O)c2nn(CC)c(=O)c3ccccc23)cc1` (configuration not stated), the IC90 was found to be 4.01 µM. For the setting “PBLUC_HILL_SLOPE 3.22, PBLUC_R_SQUARED 0.606, read-out: LUCIFERASE INFECTION ASSAY - IC50”, the IC50 was determined as 2.02 µM.
In the case of `CSc1[nH]c(=O)c(C(=O)NCCc2c(C)cc(C(C)(C)C)cc2C)cc1C#N`, the IC90 came out at 7.29 µM. Besides, the IC50 (PBLUC_HILL_SLOPE 3.23, PBLUC_R_SQUARED 0.351, read-out: LUCIFERASE INFECTION ASSAY - IC50) is 3.69 µM.
Turning to `COCCCN1C(=O)N(Cc2ccccc2)C(=O)C12CCN(Cc1cccc(-c3ccco3)c1)CC2`, the IC90 was above 6.77 µM. Further, the IC50 (PBLUC_HILL_SLOPE 3.26, PBLUC_R_SQUARED 0.648, read-out: LUCIFERASE INFECTION ASSAY - IC50) came out at 4.58 µM.
On to `Cc1cc(OCCCC(=O)NC2CCN(Cc3ccccc3)CC2)ccc1Cl`, for which the IC90 is above 10 µM. Moreover, for the setting “PBLUC_HILL_SLOPE 3.22, PBLUC_R_SQUARED 0.455, read-out: LUCIFERASE INFECTION ASSAY - IC50”, the IC50 came out at 5.35 µM.
Take `Cc1ccc(S(=O)(=O)Nc2ccc(Nc3nccn4c(-c5ccccc5N(C)C)cnc34)cc2)cc1`: the IC90 was above 6.62 µM. In addition, the IC50 (PBLUC_HILL_SLOPE 3.26, PBLUC_R_SQUARED 0.262, read-out: LUCIFERASE INFECTION ASSAY - IC50) came to 3.47 µM.
With `Cc1cc2oc(=O)cc(CN(Cc3ccc(C(=O)NC4CC4)cc3)Cc3ccco3)c2cc1C`, the IC90 was found to be 1.83 µM. For the same compound, the IC50 (PBLUC_HILL_SLOPE 3.23, PBLUC_R_SQUARED 0.675, read-out: LUCIFERASE INFECTION ASSAY - IC50) was determined as 0.928 µM.
Consider `Cc1onc(-c2ccccc2Cl)c1NC(=O)Nc1cc(C(F)(F)F)cc(C(F)(F)F)c1`, for which the IC90 came to 6.51 µM. For the same compound, the half-maximal inhibitory concentration (IC50) (PBLUC_HILL_SLOPE 3.23, PBLUC_R_SQUARED 0.494, read-out: LUCIFERASE INFECTION ASSAY - IC50) came to 3.3 µM.
Consider `Cc1nn(-c2ccccc2Cl)c(Cl)c1/C=N/Nc1ccccc1Cl`, for which the concentration for an effect of 90% (IC90) was 7.32 µM. Also, the IC50 (PBLUC_HILL_SLOPE 3.24, PBLUC_R_SQUARED 0.794, read-out: LUCIFERASE INFECTION ASSAY - IC50) was found to be 3.72 µM.
Turning to `O=C(/C=C/c1cccs1)N1CCN(S(=O)(=O)c2c(Cl)cc(Br)cc2Cl)CC1`, the IC90 is above 10 µM. For the same compound, under “PBLUC_HILL_SLOPE 3.28, PBLUC_R_SQUARED 0.115, read-out: LUCIFERASE INFECTION ASSAY - IC50”, the IC50 worked out at 5.38 µM.
With `Cn1c(-c2c(-c3ccccc3)n[nH]c2-c2ccc([N+](=O)[O-])cc2)nc2ccccc21`, the IC90 was 9.52 µM. Also, the IC50 (PBLUC_HILL_SLOPE 3.22, PBLUC_R_SQUARED 0.201, read-out: LUCIFERASE INFECTION ASSAY - IC50) is 4.81 µM.
As to `COc1cc(-c2cnc3cnc(-c4ccc(CNc5ccccc5)cc4)cn23)cc(OC)c1OC`, the IC90 was determined as 5.78 µM. The IC50 (PBLUC_HILL_SLOPE 3.28, PBLUC_R_SQUARED 0.672, read-out: LUCIFERASE INFECTION ASSAY - IC50) was determined as 2.96 µM.
`Fc1ccc(COc2ccc(Cl)cc2CNCc2ccccn2)cc1`: the IC90 was above 9.25 µM. The IC50 (PBLUC_HILL_SLOPE 3.23, PBLUC_R_SQUARED 0.405, read-out: LUCIFERASE INFECTION ASSAY - IC50) came to 6.55 µM.
Turning to `Oc1c(C(c2ccc(F)cc2)N2CCCCC2)cc(Cl)c2cccnc12` (configuration not stated), the IC90 was above 10 µM. Further, the IC50 (PBLUC_HILL_SLOPE 3.21, PBLUC_R_SQUARED 0.483, read-out: LUCIFERASE INFECTION ASSAY - IC50) was 6.21 µM.
For the compound `C=CCn1c(C)cc(C(=O)CSc2nc3ccccc3s2)c1C`, the IC90 came to 0.221 µM. Besides, the IC50 (PBLUC_HILL_SLOPE 3.3, PBLUC_R_SQUARED 0.342, read-out: LUCIFERASE INFECTION ASSAY - IC50) was found to be 0.113 µM.
Consider `O=C(Nc1ccccc1)c1ccc(C2(CNCc3cccnc3)CC2)cc1`, for which the IC90 was 0.637 µM. Besides, the IC50 (PBLUC_HILL_SLOPE 3.24, PBLUC_R_SQUARED 0.623, read-out: LUCIFERASE INFECTION ASSAY - IC50) came to 0.323 µM.
On to `CNc1ncnc(NNC(=O)Nc2ccc(Cl)cc2)c1[N+](=O)[O-]`, for which the IC90 was above 9.77 µM. The IC50 (PBLUC_HILL_SLOPE 3.27, PBLUC_R_SQUARED 0.316, read-out: LUCIFERASE INFECTION ASSAY - IC50) amounted to 5.92 µM.
For `CCCCCCCCc1nnc(NC(=O)c2cnc(C)cn2)s1`, the IC90 turned out to be 9.2 µM. In addition, the IC50 (PBLUC_HILL_SLOPE 3.30, 10.9, PBLUC_R_SQUARED 0.837, 0.639, read-out: LUCIFERASE INFECTION ASSAY - IC50) was 6.57 µM.
For the compound `COC(=O)c1c(NC(=O)C2CCOC2)c2cc(NCC(C)(C)C)cnc2n1CCc1c[nH]c2ccccc12` (configuration not stated), the IC90 is above 6.38 µM. Besides, the IC50 (PBLUC_HILL_SLOPE 3.23, PBLUC_R_SQUARED 0.492, read-out: LUCIFERASE INFECTION ASSAY - IC50) is 4.09 µM.
Take `CCOC(=O)c1cc(-c2ccccc2)sc1NC(=O)CSc1nnc(-c2cccnc2)n1-c1ccccc1C`: the IC90 is above 10 µM. For the same compound, the IC50 (PBLUC_HILL_SLOPE 3.21, PBLUC_R_SQUARED 0.715, read-out: LUCIFERASE INFECTION ASSAY - IC50) worked out at 6.74 µM.
As for `CC(C)(C)c1cc2nc(C(F)(F)F)cc(NNC(=O)Nc3ccccc3)n2n1`, the IC90 was above 8.41 µM. In addition, the IC50 (PBLUC_HILL_SLOPE 3.27, PBLUC_R_SQUARED 0.167, read-out: LUCIFERASE INFECTION ASSAY - IC50) is 5.36 µM.
For `COC(=O)c1c(C)[nH]c(-c2nc(Nc3cccc(OC)c3)sc2C)c1C`, the IC90 is above 10 µM. For the same compound, the IC50 (PBLUC_HILL_SLOPE 3.29, PBLUC_R_SQUARED 0.0567, read-out: LUCIFERASE INFECTION ASSAY - IC50) is 7.6 µM.
In the case of `CC(C)(C)c1ccc(C(=O)NC(=S)NNC(=O)c2cccc([N+](=O)[O-])c2)cc1`, the IC90 turned out to be 3.57 µM. The IC50 (PBLUC_HILL_SLOPE 3.29, PBLUC_R_SQUARED 0.591, read-out: LUCIFERASE INFECTION ASSAY - IC50) was found to be 1.83 µM.
As to `COc1ccc(-c2cnc3sc(NCCCO)nn23)cc1OC`, the IC90 was 7.9 µM. Where the note is “PBLUC_HILL_SLOPE 3.23, PBLUC_R_SQUARED 0.708, read-out: LUCIFERASE INFECTION ASSAY - IC50”, the half-maximal inhibitory concentration (IC50) is 4 µM.
In the case of `CN1/C(=C\C=N\NC(=O)c2cccs2)C(C)(C)c2ccccc21`, the IC90 came to 8.4 µM. For the same compound, the IC50 (PBLUC_HILL_SLOPE 3.23, PBLUC_R_SQUARED 0.426, read-out: LUCIFERASE INFECTION ASSAY - IC50) came out at 4.25 µM.
Turning to `Fc1ccc(NC(=S)NC2CC3CC2C2C=CCC32)cc1` (configuration not stated), the IC90 came to 8.13 µM. Moreover, the IC50 (PBLUC_HILL_SLOPE 3.22, PBLUC_R_SQUARED 0.522, read-out: LUCIFERASE INFECTION ASSAY - IC50) worked out at 4.11 µM.
Consider `O=C(/C=C/c1ccc(Cl)c(Cl)c1)NNC(=O)C1COc2ccccc2O1` (configuration not stated), for which the IC90 was 9.08 µM. Besides, for the setting “PBLUC_HILL_SLOPE 3.24, PBLUC_R_SQUARED 0.588, read-out: LUCIFERASE INFECTION ASSAY - IC50”, the IC50 came out at 4.61 µM.
Turning to `Cc1nn(Cc2ccccc2)c(C)c1C(=O)N1CCN(CCOc2ccc(Cl)cc2)CC1`, the IC90 was above 10 µM. The IC50 (PBLUC_HILL_SLOPE 3.21, PBLUC_R_SQUARED 0.27, read-out: LUCIFERASE INFECTION ASSAY - IC50) came to 9.94 µM.
With `CCCCN=C1NN=C(C23CC4CC(CC(C4)C2)C3)C(C)S1` (configuration not stated), the IC90 turned out to be 8.93 µM. The IC50 (PBLUC_HILL_SLOPE 3.27, PBLUC_R_SQUARED 0.411, read-out: LUCIFERASE INFECTION ASSAY - IC50) was 4.56 µM.
For the compound `CC1(C)C2CC=C(/C=N/NC(=O)Cn3c(C(F)(F)F)nc4ccccc43)C1C2` (configuration not stated), the IC90 was above 10 µM. Where the note is “PBLUC_HILL_SLOPE 3.28, PBLUC_R_SQUARED 0.493, read-out: LUCIFERASE INFECTION ASSAY - IC50”, the 50% inhibitory concentration (IC50) was 6.15 µM.
For `Cc1ccccc1/N=c1\scc(-c2ccc(Cl)cc2Cl)n1C(C)CCC(C)C` (configuration not stated), the IC90 was 9.57 µM. In addition, the IC50 (PBLUC_HILL_SLOPE 3.23, PBLUC_R_SQUARED 0.321, read-out: LUCIFERASE INFECTION ASSAY - IC50) was found to be 4.85 µM.
In the case of `CNc1nc(-c2cccnc2)nc2sc(-c3ccccc3)cc12`, the IC90 is above 10 µM. Under “PBLUC_HILL_SLOPE 3.26, PBLUC_R_SQUARED 0.654, read-out: LUCIFERASE INFECTION ASSAY - IC50”, the IC50 came to 6.22 µM.
Consider `CN(C)CCNC(=O)c1ccc(-c2cn3c(-c4ccc5c(ccn5C)c4)cnc3cn2)cc1`, for which the IC90 was above 7.53 µM. The half-inhibitory concentration (IC50) (PBLUC_HILL_SLOPE 3.24, PBLUC_R_SQUARED 0.242, read-out: LUCIFERASE INFECTION ASSAY - IC50) was above 7.53 µM.
Turning to `C=CCN(C(=O)c1cccc(C)c1[N+](=O)[O-])c1nc2c(s1)CCCC2`, the IC90 is above 10 µM. Moreover, the IC50 (PBLUC_HILL_SLOPE 3.27, PBLUC_R_SQUARED 0.266, read-out: LUCIFERASE INFECTION ASSAY - IC50) is 9.32 µM.

The values above are taken from ChEMBL document CHEMBL4483862, “Open-source discovery of chemical leads for next-generation chemoprotective antimalarials” (2018).
